US20260216359A1, “CYCLIC PEPTIDE-BASED LYSOSOME TARGETING DEGRADERS” (Wisconsin Alumni Research Foundation, priority 2023, published 2026)

Tests used:
anti-biotin-647 = assay: lysosomal degradation of anti-biotin-647 in MCF7 cells, in gel fluorescence; assay type: cell-based; settings: 25 nM Ab-cRGD and 50 nM anti-biotin-647 for 3 h, then 50 nM BAF1 for 3 h
Method: MCF7 cells were seeded in a 48-well plate at 70% confluence and maintained in 200 μL complete culture media. Next day, cells were incubated with 25 nM of Ab-cRGD and 50 nM of anti-biotin-647 for 3 h followed by three washes with PBS. Cells were then maintained in fresh media with or without 50 nM Bafilomycin A1 (BAF1) for another 3 h before harvested for in gel fluorescence analysis.

EGFR = assay: inhibition of Ctx-PEG12-cRGD-induced EGFR degradation in MCF7 cells, western blot; assay type: cell-based; settings: BAF1 50 nM, CQ 10 uM, in the presence of 10 nM Ctx-PEG12-cRGD for 6h
Method: MCF7 cells were seeded at 70% confluence in a 24-well plate and incubated in 350 μL complete culture media overnight. Cells were pre-treated with free excess cRGD-azide with concentrations indicated in the figure at 4° C. for 1 h before incubating with 10 nm Ctx-PEG12-cRGD for 8 h. Cells were then harvested for western blot.
MCF7 cells were seeded at 70% confluence in a 24-well plate and incubated in 350 μL complete culture media overnight. Cells were treated with lysosomal degradation inhibitor Bafilomycin A1 (BAF1) at 50 nM and Chloroquine (CQ) at 10 uM in the presence of 10 nM Ctx-PEG12-cRGD for 6h.

α5β1 = α5β1 (Homo sapiens, UniProt P05556+P08648); settings: Kapp et al., 2017; one range given for αvβ5, αvβ6, α5β1; cited from earlier work
Sequence of α5β1 (P08648 42-894 limits assumed): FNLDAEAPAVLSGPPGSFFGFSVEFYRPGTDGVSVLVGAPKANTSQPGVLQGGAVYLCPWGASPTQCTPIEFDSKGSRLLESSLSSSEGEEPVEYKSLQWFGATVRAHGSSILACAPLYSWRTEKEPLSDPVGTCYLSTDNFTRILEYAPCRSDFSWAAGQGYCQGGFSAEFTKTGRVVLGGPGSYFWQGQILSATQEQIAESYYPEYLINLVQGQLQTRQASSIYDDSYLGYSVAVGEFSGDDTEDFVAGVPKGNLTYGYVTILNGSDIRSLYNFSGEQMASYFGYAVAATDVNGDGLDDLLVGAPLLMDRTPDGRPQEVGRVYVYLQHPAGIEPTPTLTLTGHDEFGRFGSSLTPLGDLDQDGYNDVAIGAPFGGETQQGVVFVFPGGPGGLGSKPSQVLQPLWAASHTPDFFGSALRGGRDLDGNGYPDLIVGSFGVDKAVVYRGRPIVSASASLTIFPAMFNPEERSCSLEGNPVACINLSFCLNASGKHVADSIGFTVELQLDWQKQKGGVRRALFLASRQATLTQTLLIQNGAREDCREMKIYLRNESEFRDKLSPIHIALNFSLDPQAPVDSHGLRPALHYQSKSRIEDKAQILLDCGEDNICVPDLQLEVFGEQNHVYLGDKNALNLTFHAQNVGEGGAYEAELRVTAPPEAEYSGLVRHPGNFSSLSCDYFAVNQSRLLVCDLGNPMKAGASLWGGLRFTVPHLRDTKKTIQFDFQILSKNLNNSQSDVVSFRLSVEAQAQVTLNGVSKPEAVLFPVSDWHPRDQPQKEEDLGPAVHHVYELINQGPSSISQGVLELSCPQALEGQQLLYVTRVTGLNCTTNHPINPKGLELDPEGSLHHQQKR
Sequence of α5β1 (P08648 895-995 partner limits assumed): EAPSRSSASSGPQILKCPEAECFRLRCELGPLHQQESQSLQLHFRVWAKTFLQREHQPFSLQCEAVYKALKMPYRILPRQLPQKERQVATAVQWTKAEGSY
Sequence of α5β1 (P05556 21-728 limits assumed): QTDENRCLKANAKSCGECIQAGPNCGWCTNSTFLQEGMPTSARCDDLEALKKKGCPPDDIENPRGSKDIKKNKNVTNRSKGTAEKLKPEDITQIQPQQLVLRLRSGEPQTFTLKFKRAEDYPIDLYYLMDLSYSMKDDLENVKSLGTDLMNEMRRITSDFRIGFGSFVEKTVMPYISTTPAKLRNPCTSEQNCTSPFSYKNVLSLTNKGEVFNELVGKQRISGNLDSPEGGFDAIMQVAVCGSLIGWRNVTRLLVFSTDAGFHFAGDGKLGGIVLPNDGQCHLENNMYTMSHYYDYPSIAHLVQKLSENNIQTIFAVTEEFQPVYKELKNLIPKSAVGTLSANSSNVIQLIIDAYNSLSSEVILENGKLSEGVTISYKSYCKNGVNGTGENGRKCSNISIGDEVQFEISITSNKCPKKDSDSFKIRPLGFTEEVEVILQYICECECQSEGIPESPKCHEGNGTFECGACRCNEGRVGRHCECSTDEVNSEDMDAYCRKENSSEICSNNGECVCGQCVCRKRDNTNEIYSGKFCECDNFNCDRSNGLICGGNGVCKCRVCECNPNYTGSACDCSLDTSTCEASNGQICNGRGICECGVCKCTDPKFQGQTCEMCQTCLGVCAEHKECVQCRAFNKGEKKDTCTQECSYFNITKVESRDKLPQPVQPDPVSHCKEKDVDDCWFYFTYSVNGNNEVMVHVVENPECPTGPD

CO/C1=C\C(C)=C\[C@@H](C)[C@@H](O)[C@@H](C)C/C(C)=C/C=C/[C@H](OC)[C@@H]([C@@H](C)[C@@H](O)[C@H](C)[C@@]2(O)C[C@@H](O)[C@H](C)[C@@H](C(C)C)O2)OC1=O [Bafilomycin A1]
inhibition of lysosomal degradation of anti-biotin-647 (FIG. 14) (anti-biotin-647): inhibition of lysosomal degradation of anti-biotin-647
inhibition of EGFR degradation by lysosomal degradation inhibitors (FIG. 16) (EGFR): inhibition of EGFR degradation

CCN(CC)CCCC(C)Nc1ccnc2cc(Cl)ccc12 (stereo not shown) [Chloroquine]
inhibition of EGFR degradation by lysosomal degradation inhibitors (FIG. 16) (EGFR): inhibition of EGFR degradation

cyclo(Arg-Gly-Asp-D-Phe-Lys) [cRGD]
binding to α5β1 (α5β1): 50 to 350 nM
